# According to patent US20100075972A1, “AGENT FOR TREATMENT OF MULTIPLE SCLEROSIS” (Kowa Co., Ltd., priority 2007, published 2010):
# Experiments:
# IL-6 mRNA = IL-6 mRNA expression in the spinal cord of experimental autoimmune encephalomyelitis mice (real-time PCR); type: in vivo; settings: day 42, spinal cord of EAE mice of Example 1, corrected by ribosomal RNA
# Description: (§1) On day 42, the spinal cord was removed from the mice employed in Example 1, and total RNA was recovered by use of ISOGEN (Nippon Gene Co., Ltd.). For comparison, similarly, the spinal cord was extirpated from unsensitized normal mice, and was employed for the below-described quantitative determination. cDNA was synthesized from the thus-obtained total RNA by use of a reverse transcriptase, and the amount of mRNA of the following gene (F4/80, TNF-α, IL-1β, or IL-6) was quantitatively determined by means of an ABI PRISM 7900HT system (Applied Biosystems) through real-time PCR employing a TaqMan probe according to the protocol of Applied Biosystems. Meanwhile, the amount of ribosomal RNA was determined, and employed for correction.
# TNF-α mRNA = TNF-α mRNA expression in the spinal cord of experimental autoimmune encephalomyelitis mice (real-time PCR); type: in vivo; settings: day 42, spinal cord of EAE mice of Example 1, corrected by ribosomal RNA
# Description: as §1
# [1] = tested on: interleukin-1β production; settings: as disclosed in WO 99/25697; cited from earlier work
# F4/80 mRNA = F4/80 mRNA expression in the spinal cord of experimental autoimmune encephalomyelitis mice (real-time PCR); type: in vivo; settings: day 42, spinal cord of EAE mice of Example 1, corrected by ribosomal RNA
# Description: as §1
# [2] = tested on: experimental autoimmune encephalomyelitis model; test: experimental autoimmune encephalomyelitis mouse model, symptom scores; type: in vivo, C57BL/6 mice
# Method: The experimental autoimmune encephalomyelitis model is established by immunizing a mouse with myelin protein (i.e., myelin-sheath-constituting protein), thereby causing T-cell-mediated autoimmune inflammation in the central nervous system.
# Seven-week-old female C57BL/6 mice (Charles River Laboratories Japan, Inc.) were employed. A sensitizing emulsion for causing the mice to develop experimental autoimmune encephalomyelitis was prepared by mixing myelin oligodendrocyte glycoprotein (MOG) 35-55 (Alexis Biochemical) with an equiamount of complete Freund's adjuvant H37Ra (DIFCO) so that the MOG concentration was 2 mg/mL, followed by homogenization under ice cooling by means of Handy Micro Homogenizer (product of Microtec Co., Ltd.). The thus-prepared emulsion (0.1 mL) was intradermally administered to each mouse at its tail base for initial sensitization. On the same day, pertussis toxin dissolved in saline (500 ng/0.3 mL) was intravenously injected to the tail. Two days after initial sensitization, in a manner similar to that described above, pertussis toxin (500 ng/0.3 mL) was intravenously injected for booster. Drug A was orally administered (30 mg/kg) twice a day in the morning (9:00 to 11:00) and in the evening (15:30 to 17:30) from the day following the initial sensitization to 42 days after sensitization.
# The drugs were evaluated from the condition of experimentally created autoimmune encephalomyelitis according to the following ratings:
# score 1: limp tail or abnormal gait;
# score 2: limp tail and abnormal gait;
# score 3: paralysis of one limb;
# score 4: paralysis of two or more limbs; and
# In FIGS. 1 and 2 and Table 1, the data for each group (10 mice) are represented by average value±standard error (non-parametric Dunnett's test).
# IL-1β mRNA = IL-1β mRNA expression in the spinal cord of experimental autoimmune encephalomyelitis mice (real-time PCR); type: in vivo; settings: day 42, spinal cord of EAE mice of Example 1, corrected by ribosomal RNA
# Description: as §1
# [3] = oral administration of drug A 30 mg/kg twice a day
smiles,measurement,setting,value
"CSc1ccc(-c2nn(Cc3ccccc3)c(=O)cc2-c2ccc(Cl)cc2)cc1 [Drug A, 2-Benzyl-5-(4-chlorophenyl)-6-[4-(methylthio)phenyl]-2H-pyridazin-3-one]",expression of IL-6 mRNA in spinal cord,IL-6 mRNA,found to be reduced
same,expression of TNF-α mRNA in spinal cord,TNF-α mRNA,found to be reduced
same,interleukin-1β production inhibitory effect,[1],excellent
same,amount of expression of mRNA of F4/80 in spinal cord,F4/80 mRNA,found to be reduced
same,"Incidence rate, symptoms corresponding to score 2 or worse","[2]; EAE mice, 10 per group, Drug A 30 mg/kg orally twice a day to day 42, IFN-β 10,000 IU/individual subcutaneously every other day",8/10
same,death case during the experiment (score 5),"[2]; EAE mice, 42 days after sensitization, Drug A 30 mg/kg orally twice a day, IFN-β 10,000 IU/individual s.c. every other day",no death case was observed
same,"Days required for onset, symptoms corresponding to score 2 or worse","[2]; EAE mice, average ± standard error, Drug A 30 mg/kg orally twice a day, IFN-β 10,000 IU/individual subcutaneously every other day",22.4 ± 1.5 days
same,experimental autoimmune encephalomyelitis scores (FIG. 1),[2]; [3],ameliorated to almost the same extent as in the case of IFN-β
same,maximum score of experimental autoimmune encephalomyelitis symptoms (FIG. 2),[2]; [3],tended to be reduced
same,onset of symptoms corresponding to score 2 or worse (in words),[2]; [3],tended to be delayed
same,expression of IL-1β mRNA in spinal cord,IL-1β mRNA,found to be reduced
